Patent US10155756B2, “Pyrazolo[1,5-A]pyridine compounds and use thereof” (GUANGZHOU INSTITUTES OF BIOMEDICINE AND HEALTH, CHINESE …, priority 2014, dated 2018)
≈ marks a conversion by molar mass, not a printed value.

Each compound was assayed on self-luminescent tuberculosis (assay: microbe, parasite or virus in culture). Conditions: Mycobacterium tuberculosis, 72 h; read-out: MIClux.
Format: cell-based

Question: How did the MIC turn out when `Cc1ccn2nc(C)c(C(=O)NCc3ccc(Oc4ccc(OC(F)(F)F)cc4)cc3)c2c1` [TJ830153] was run?
Answer: < 1 µg/mL

Question: Which MIC does the source give for `CCc1nn2ccc(Cl)cc2c1C(=O)NCc1ccc(-c2ccc(OC(F)(F)F)cc2)nc1` [TJ830028, 5-chloro-2-ethyl-N-((6-(4-(trifluoromethoxy)phenyl)pyridine-3-yl)methyl) pyrazolo [1,5-a] pyridine-3-carboxamide] here?
Answer: < 1 µg/mL

Question: Which MIC does the source give for `Cc1ccc2c(C(=O)NCc3ccc(N4CCC(c5ccc(OC(F)(F)F)cc5)CC4)cc3)c(C)nn2c1` [TJ064854, 2,6-dimethyl-N-(4-(4-(4-(trifluoromethoxy)phenyl)piperidine-1-yl)benzyl) pyrazolo[1,5-a] pyridine-3-carboxamide] here?
Answer: < 1 µg/mL

Question: `Cc1ccn2nc(C)c(C(=O)NCc3ccc(-c4ccc(OC(F)(F)F)cc4)cn3)c2c1` [TJ830133, 2,5-dimethyl-N-((5-(4-(trifluoromethoxy)phenyl)pyridine-2-yl)methyl) pyrazolo [1,5-a] pyridine-3-carboxamide] was tested. Which MIC did it give?
Answer: < 1 µg/mL

Question: `CCCc1nn2ccc(Cl)cc2c1C(=O)NCc1ccc(N2CCC(c3ccc(OC(F)(F)F)cc3)CC2)cc1` [TJ830134] was tested. Which MIC did it give?
Answer: < 1 µg/mL

Question: With `CCc1ccn2nc(C)c(C(=O)NCc3ccc(N4CCC(c5ccc(OC(F)(F)F)cc5)CC4)cc3)c2c1` [TJ830082, 5-ethyl-2-methyl-N-(4-(4-(4-(trifluoromethoxy)phenyl)piperidine-1-substituted)benzyl) pyrazolo [1,5-a] pyridine-3-carboxamide] as the compound, how does the MIC read?
Answer: < 1 µg/mL

Question: Which MIC does the source give for `Cc1ccn2nc(C)c(C(=O)NCc3ccc(Oc4ccc(F)cc4)cc3)c2c1` [TJ830147, N-(4-(4-fluorophenoxy)benzyl)-2,5-dimethylpyrazolo [1,5-a] pyridine-3-carboxamide] here?
Answer: < 1 µg/mL

Question: How did the MIC turn out when `Cc1nn2ccccc2c1C(=O)NCc1ccc(C(F)(F)F)cc1` [TJ830069] was run?
Answer: 1 to 10 µg/mL (≈ 3 to 30 µM)

Question: For `CCc1nn2ccc(Cl)cc2c1C(=O)NCCc1ccc(N2CCC(c3ccc(OC(F)(F)F)cc3)CC2)cc1` [TJ830128, 5-chloro-2-ethyl-N-(4-(4-(4-(trifluoromethoxy)phenyl)piperidine-1-yl)phenethyl) pyrazolo [1,5-a] pyridine-3-carboxamide], which MIC is on record?
Answer: 1 to 10 µg/mL (≈ 1.75 to 17.5 µM)

Question: For `Cc1ccn2nc(C)c(C(=O)NCc3cn(-c4ccc(OC(F)(F)F)cc4)nn3)c2c1` [TJ830003], which MIC is on record?
Answer: > 10 µg/mL

Question: How did the MIC turn out when `Cc1nn2ccc(C(F)(F)F)cc2c1C(=O)NCc1ccc(N2CCC(c3ccc(OC(F)(F)F)cc3)CC2)cc1` [TJ064995, 5-trifluoromethyl-2-methyl-N-(4-(4-(4-(trifluoromethoxy)phenyl)piperidine-1-yl)benzyl) pyrazolo [1,5-a] pyridine-3-carboxamide] was run?
Answer: 1 to 10 µg/mL (≈ 1.73 to 17.3 µM)

Question: How did the MIC turn out when `CCOc1ccn2nc(C)c(C(=O)NCc3ccc(N4CCC(c5ccc(OC(F)(F)F)cc5)CC4)cc3)c2c1` [TJ830108, 5-methyl-2-ethoxy-N-(4-(4-(4-(trifluoromethoxy)phenyl)piperidine-1-substituted)benzyl) pyrazolo [1,5-a] pyridine-3-carboxamide] was run?
Answer: < 1 µg/mL

Question: `Cc1ccn2nc(C)c(C(=O)NCc3ccc(-c4ccc(OC(F)(F)F)cc4)cc3)c2c1` [TJ830151, 2,5-dimethyl-N-((4′-(trifluoromethoxy)-[1,1′-biphenyl]-4-yl)methyl) pyrazolo [1,5-a] pyridine-3-carboxamide] was tested. Which MIC did it give?
Answer: < 1 µg/mL

Question: For `Cc1nn2cccc(C)c2c1C(=O)NCc1ccc(N2CCC(c3ccc(OC(F)(F)F)cc3)CC2)cc1` [TJ064872, 2,4-dimethyl-N-(4-(4-(4-(trifluoromethoxy)phenyl)piperidine-1-yl)benzyl) pyrazolo[1,5-a] pyridine-3-carboxamide], which MIC is on record?
Answer: > 10 µg/mL

Question: For `CCc1nn2ccc(Cl)cc2c1C(=O)NCc1cn(-c2ccc(OC(F)(F)F)cc2)nn1` [TJ064983], which MIC is on record?
Answer: > 10 µg/mL

Question: How did the MIC turn out when `Cc1ccn2nc(C)c(C(=O)NCc3ccc(N4CCCCC4)cc3)c2c1` [TJ830146, 2,5-dimethyl-N-(4-(piperidine-1-yl)benzyl) pyrazolo [1,5-a] pyridine-3-carboxamide] was run?
Answer: < 1 µg/mL

Question: Which MIC does the source give for `Cc1ccn2nc(C)c(C(=O)NCc3ccc(C(F)(F)F)cc3)c2c1` [TJ830072] here?
Answer: < 1 µg/mL

Question: With `Cc1ccn2nc(C)c(C(=O)NCc3ccc(N4CCC(C(F)(F)F)CC4)cc3)c2c1` [TJ830149, 2,5-dimethyl-N-(4-(4-(trifluoromethyl)piperidine-1-yl)benzyl) pyrazolo [1,5-a] pyridine-3-carboxamide] as the compound, how does the MIC read?
Answer: < 1 µg/mL

Question: For `Cc1nn2ccc(-c3ccccc3)cc2c1C(=O)NCc1ccc(N2CCC(c3ccc(OC(F)(F)F)cc3)CC2)cc1` [TJ830012, 5-phenyl-2-methyl-N-(4-(4-(4-(trifluoromethoxy)phenyl)piperidine-1-yl)benzyl) pyrazolo [1,5-a] pyridine-3-carboxamide], which MIC is on record?
Answer: > 10 µg/mL

Question: For `COc1ccc(C2CCN(c3ccc(CNC(=O)c4c(C)nn5ccc(C)cc45)cc3)CC2)cc1` [TJ830140, N-(4-(4-(4-methoxyphenyl)piperidine-1-yl)benzyl)-2,5-dimethyl-pyrazolo [1,5-a] pyridine-3-carboxamide], which MIC is on record?
Answer: < 1 µg/mL

Question: For `Cc1ccn2nc(C)c(C(=O)NCc3ccc(N(C)C)cc3)c2c1` [TJ830136, N-(4-(dimethylamino)benzyl)-2,5-dimethylpyrazolo [1,5-a] pyridine-3-carboxamide], which MIC is on record?
Answer: < 1 µg/mL

Question: How did the MIC turn out when `Cc1ccn2nc(C)c(C(=O)NCc3ccc(N4CCC(c5ccc(F)cc5)CC4)cc3)c2c1` [TJ830141, N-(4-(4-(4-fluorophenyl)piperidine-1-yl)benzyl)-2,5-dimethyl-pyrazolo [1,5-a] pyridine-3-carboxamide] was run?
Answer: < 1 µg/mL

Question: With `CCc1nn2ccc(Cl)cc2c1C(=O)NCc1ccc(F)cc1` [TJ4570004, 5-chloro-2-ethyl-N-(4-fluorobenzyl) pyrazolo [1,5-a] pyridine-3-carboxamide] as the compound, how does the MIC read?
Answer: > 10 µg/mL

Question: How did the MIC turn out when `Cc1ccn2nc(C)c(C(=O)NCc3ccc(F)cc3)c2c1` [TJ4570006, N-(4-fluorobenzyl)-2,5-dimethylpyrazolo [1,5-a] pyridine-3-carboxamide] was run?
Answer: 1 to 10 µg/mL (≈ 3.36 to 33.6 µM)

Question: With `CCc1nn2ccc(Cl)cc2c1C(=O)NC(C)c1ccc(N2CCC(c3ccc(OC(F)(F)F)cc3)CC2)cc1` (stereo not drawn) [TJ830070, 5-chloro-2-ethyl-N-(1-(4-(4-(4-(trifluoromethoxy)phenyl)piperidine-1-yl)phenyl)ethanol) pyrazolo [1,5-a] pyridine-3-carboxamide] as the compound, how does the MIC read?
Answer: > 10 µg/mL

Question: How did the MIC turn out when `Cc1ccn2nc(C)c(C(=O)NCc3ccc(C(C)(C)C)cc3)c2c1` [TJ830135, N-(4-(tert-butyl)benzyl)-2,5-dimethylpyrazolo [1,5-a] pyridine-3-carboxamide] was run?
Answer: < 1 µg/mL

Question: With `O=C(NCc1ccc(N2CCC(c3ccc(OC(F)(F)F)cc3)CC2)cc1)c1c(-c2ccccc2)nn2ccc(Cl)cc12` [TJ170386, 5-chloro-2-phenyl-N-(4-(4-(4-(trifluoromethoxy)phenyl)piperidine-1-yl)benzyl) pyrazolo [1,5-a] pyridine-3-carboxamide] as the compound, how does the MIC read?
Answer: > 10 µg/mL

Question: `CCc1nn2ccc(Cl)cc2c1C(=O)NCc1ccc(C(=O)OC)cc1` [TJ064814, 4-((5-chloro-2-ethylpyrazolo [1,5-a]pyridine-3-carboxamide)methyl) methyl benzoate] was tested. Which MIC did it give?
Answer: 1 to 10 µg/mL (≈ 2.69 to 26.9 µM)

Question: Which MIC does the source give for `CCc1nn2ccc(Cl)cc2c1C(=O)NC(C)(C)c1ccc(N2CCC(c3ccc(OC(F)(F)F)cc3)CC2)cc1` [TJ064987, 5-chloro-2-ethyl-N-(2-(4-(4-(4-(trifluoromethoxy)phenyl)piperidine-1-yl)phenyl)propane-2-substituted) pyrazolo [1,5-a] pyridine-3-carboxamide] here?
Answer: > 10 µg/mL

Question: Which MIC does the source give for `Cc1ccn2nc(C)c(C(=O)NCc3ccc(N4CCC(Oc5ccc(OC(F)(F)F)cc5)CC4)cc3)c2c1` [TJ830161, 2,5-dimethyl-N-(4-(4-(4-(trifluoromethoxy)phenoxy)piperidine-1-yl)benzyl) pyrazolo [1,5-a] pyridine-3-carboxamide] here?
Answer: < 1 µg/mL

Question: Which MIC does the source give for `O=C(NCc1ccc(N2CCC(c3ccc(OC(F)(F)F)cc3)CC2)cc1)c1cnn2ccc(Cl)cc12` [TJ170371, 5-chloro-N-(4-(4-(4-(trifluoromethoxy)phenyl)piperidine-1-yl)benzyl) pyrazolo [1,5-a] pyridine-3-carboxamide] here?
Answer: 1 to 10 µg/mL (≈ 1.89 to 18.9 µM)

Question: For `CCc1nn2ccc(Cl)cc2c1C(=O)N(C)Cc1ccc(N2CCC(c3ccc(OC(F)(F)F)cc3)CC2)cc1` [TJ064985], which MIC is on record?
Answer: 1 to 10 µg/mL (≈ 1.75 to 17.5 µM)

Question: Which MIC does the source give for `COc1ccn2nc(C)c(C(=O)NCc3ccc(N4CCC(c5ccc(OC(F)(F)F)cc5)CC4)cc3)c2c1` [TJ830047, 5-methoxy-2-methyl-N-(4-(4-(4-(trifluoromethoxy)phenyl)piperidine-1-yl)benzyl) pyrazolo [1,5-a] pyridine-3-carboxamide] here?
Answer: < 1 µg/mL

Question: With `CCc1nn2ccc(Cl)cc2c1C(=O)Nc1ccc(N2CCC(c3ccc(OC(F)(F)F)cc3)CC2)cc1` [TJ064819, 5-chloro-2-ethyl-N-(4-(4-(4-(trifluoromethoxy)phenyl)piperidine-1-yl)phenyl) pyrazolo [1,5-a] pyridine-3-carboxamide] as the compound, how does the MIC read?
Answer: > 10 µg/mL

Question: For `Cc1ccn2nc(C)c(C(=O)NCc3cnc(-c4ccc(OC(F)(F)F)cc4)nc3)c2c1` [TJ830150, 2,5-Dimethyl-N-((2-(4-(trifluoromethoxy)phenyl)pyrimidine-5-yl)methyl) pyrazolo [1,5-a] pyridine-3-carboxamide], which MIC is on record?
Answer: < 1 µg/mL

Question: With `CCc1nn2ccc(C)cc2c1C(=O)NCc1ccc(N2CCC(c3ccc(OC(F)(F)F)cc3)CC2)cc1` [TJ830102, 5-methyl-2-ethyl-N-(4-(4-(4-(trifluoromethoxy)phenyl)piperidine-1-substituted)benzyl) pyrazolo [1,5-a] pyridine-3-carboxamide] as the compound, how does the MIC read?
Answer: < 1 µg/mL

Question: How did the MIC turn out when `Cc1ccn2nc(C)c(C(=O)NCc3ccc(-c4ccc(OC(F)(F)F)cc4)s3)c2c1` [TJ830132, 2,5-dimethyl-N-((5-(4-(trifluoromethoxy)phenyl)thiophene-2-yl)methyl) pyrazolo [1,5-a] pyridine-3-carboxamide] was run?
Answer: < 1 µg/mL

Question: How did the MIC turn out when `Cc1nn2ccc(C(C)(C)C)cc2c1C(=O)NCc1ccc(N2CCC(c3ccc(OC(F)(F)F)cc3)CC2)cc1` [TJ830075, 5-tert-Butyl-2-methyl-N-(4-(4-(4-(trifluoromethoxy)phenyl)piperidine-1-substituted)benzyl) pyrazolo [1,5-a] pyridine-3-carboxamide] was run?
Answer: > 10 µg/mL

Question: Which MIC does the source give for `Cc1ccn2nc(C)c(C(=O)NCc3ccc(-c4ccc(OC(F)(F)F)cc4)nc3)c2c1` [TJ830025, 2,5-dimethyl-N-((6-(4-(trifluoromethoxy)phenyl)pyridine-3-yl)methyl) pyrazolo [1,5-a] pyridine-3-carboxamide] here?
Answer: < 1 µg/mL
